What was measured:
[1] = test system: keratinocytes; settings: cited from earlier work
[2] = cited from earlier work
[3] = Parallel artificial membrane permeability assay (PAMPA) with suspended lipid bilayers; assay type: in vitro ADME, human; settings: 0.1 mg/mL amphotericin B
Description: “Parallel artificial membrane permeability assay” (PAMPA) is a method that determines the permeability of substances from a donor compartment, through a lipid-infused artificial membrane into an acceptor compartment. A multi-well microtiter plate is used for the donor, and a membrane/acceptor compartment is placed on top. The whole assembly is referred to in the heterogeneous membrane art as a “sandwich.” Initially, the drug is added to the donor compartment, and the acceptor compartment is drug-free. After an incubation period, which may include stirring, the sandwich is separated, and the drug is measured in each compartment. Techniques including but not limited to absorbance measurements allow calculation of the drug that remains in the membrane.
Using a parallel artificial permeability assay (PAMPA) with suspended lipid bilayers, polyvinylidene difluoride (PVDF) 96-well multiscreen filter plates ([…]) and transport receiver plates (Millipore-Sigma, Burlington, MA, USA), the inventors investigate DEHP, amphotericin B, and amBisome® diffusion from a donor compartment, through the porous membrane treated with lipid, to an acceptor compartment. The maximum absorbance for DEHP, amphotericin B, and amBisome® was measured using a plate reader and determined to be 280 nm, 340 nm, and 320 nm, respectively. […]

Structure (SMILES): CNC(=O)Oc1cccc2c1OC(C)(C)C2 [Carbofuran, carbofuran]
- toxicity against keratinocytes [1]: toxic

Structure (SMILES): CCCCC(CC)COC(=O)c1ccccc1C(=O)OCC(CC)CCCC (centres unmarked) [DEHP, di(2-ethylhexyl) phthalate]
- risk for miscarriage ([2]; higher concentrations of phthalates): increases the risk for miscarriage
- more likely to lose a pregnancy compared to women with lower levels ([2]; women exposed to high concentrations): 60%

Structure (SMILES): C[C@@H]1[C@H](O)[C@@H](C)/C=C/C=C/C=C/C=C/C=C/C=C/C=C/[C@H](O[C@@H]2O[C@H](C)[C@@H](O)[C@H](N)[C@@H]2O)C[C@@H]2O[C@](O)(C[C@@H](O)C[C@@H](O)[C@H](O)CC[C@@H](O)C[C@@H](O)CC(=O)O[C@H]1C)C[C@H](O)[C@H]2C(=O)O [amphotericin B]
- interaction with suspended trophoblast bilayers compared to amBisome® [3]: interacts less
- interaction with suspended trophoblast bilayers compared to amBisome® ([3]; listed as Amphotericin B): interacted more

Source: patent US12195755B2, “Placental lipid bilayer for cell-free molecular interaction studies” (priority 2019, dated 2025)
